EP4650362A1, “NEUROPROTECTIVE PSD-95 POLYPEPTIDE INHIBITOR AND USE THEREOF” (Beijing Tuo Jie Biopharmaceutical Co. Ltd., priority 2023, dated 2024)
Non-standard residues stand in square brackets, D forms with d. Residues, ends and D or L forms follow the SMILES beside them. hArg = N=C(N)NCCCC[C@H](N)C(=O)O; Tle = CC(C)(C)[C@H](N)C(=O)O; Dab = NCC[C@H](N)C(=O)O; Aib = CC(C)(N)C(=O)O

Assays:
[1] = biological target: T1, human PSD95-PDZ2 (Homo sapiens, UniProt P78352); test: binding ELISA with Biotin-PDZ2; conditions: for EC50: plate coated with 2 µM test compound, Biotin-PDZ2 titrated, read-out: EC50 (PDZ2); for Specificity for PDZ2 (PDZ3/PDZ2): ratio PDZ3/PDZ2
T1 construct: PDZ2 (155-249, the Flag-His-Avitag-TEVsite tag is italicized); made in house; host or cells: E. coli BL21-DE3 (PET vector)
Text: (§1) The three PDZ domains in the PSD95 protein are structurally similar. Binding to the PDZ1 and PDZ2 domains can effectively block PSD95-mediated neuroexcitotoxicity. However, the biological function of binding to the PDZ3 domain is unclear. Therefore, to avoid potential safety concerns, this test example assessed the selectivity of polypeptide compounds for the PDZ2 and PDZ3 domains, aiming to identify polypeptide compounds that specifically bind to the PDZ2 domain. Site-specifically biotinylated Biotin-PDZ2 and Biotin-PDZ3 proteins were used for binding ELISA assays. […] After the blocking was complete, the blocking solution was discarded, and the plate was washed three times with PBST buffer. […] After the incubation was complete, the reaction solutions in the microplate were discarded, and the plate was washed three times with PBST. 100 µL of HRP-SA secondary antibody (diluted at 1:2000) was added to each well, and the plate was incubated at 37 °C for 1 h. After the plate was washed three times with PBST, 100 µL of TMB chromogenic substrate was added. […] The absorbance at 450 nm was measured using a SpectraMax M5 microplate reader, and the binding EC50 values of the test compounds to Biotin-PDZ2 or Biotin-PDZ3 were calculated using GraphPad Prism 9. […] The abilities of polypeptide compounds to bind to human PSD95-PDZ2 and human PSD95-PDZ3
Target sequence in this assay (P78352 155-249): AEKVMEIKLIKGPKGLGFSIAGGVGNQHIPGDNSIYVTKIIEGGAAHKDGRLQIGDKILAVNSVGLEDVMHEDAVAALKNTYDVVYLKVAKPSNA

[2] = biological target: T1, human PSD95-PDZ2; test: competitive ELISA, affinity for human PSD95-PDZ2; type: binding; conditions: for IC50: competitive ELISA against 0.3 µM Biotin-NA-1, error of this test within three times, read-out: IC50; for rIC50: ratio of the affinity of the polypeptide compound to the affinity of NA-1
Text: The objective of this test example was to determine the affinities of polypeptide compounds for human PSD95-PDZ2 using competitive ELISAs.
The amino acid sequence of PDZ2 protein was designed using human PSD95 (Uniprot Entry: P78352) as a template for PDZ: PDZ2 (155-249, the Flag-His-Avitag-TEVsite tag is italicized and was subsequently used for purification and biotinylation): […]
[…] (SEQ ID NO. 62). The PDZ2 gene was constructed onto a PET expression vector, and induced expression was performed using BL21-DE3 E. coli cells under conditions of 37 °C and 1 mM IPTG 4 h. Then centrifugation was performed at 10,000 g at 4 °C for 10 min, and the cell pellets were collected, resuspended in 1× PBS solution, and then lysed using a homogenizer. The lysate was centrifuged at high speed, and the supernatant was collected and filtered through a 0.45 µm membrane. A Ni-Sepharose affinity column was equilibrated with 5 column volumes of a 20 mM phosphate buffer (pH 8.0). The sample was centrifuged at high speed to remove impurities and loaded onto the column for binding. The column was rinsed with the 20 mM phosphate buffer until the A280 reading dropped to the baseline. Gradient elution was then performed with the 20 mM phosphate buffer and 0-500 mM imidazole. A protein was collected, and whether it was the target protein was determined. The purified sample described above was buffer-exchanged into 1× PBS solution, and the resulting solution was concentrated to a volume of 2 mL and further purified using a Superdex200 gel chromatography column (GE) equilibrated with 1× PBS. The target peak was collected and aliquoted for later use.
PSD95-PDZ2 (the tag was removed by TEV enzyme) was diluted with 1× PBS buffer to 1 µg/mL, added to a 96-well microplate (Corning, 9018, 25/box 96-well clear flat bottom plate) at 100 µL/well, and left to stand overnight at 4 °C for 16-20 h. After the liquid was discarded, the plate was washed three times with PBST (pH 7.4, 0.05% Tween-20) buffer, and a 4% BSA blocking solution diluted with PBST buffer was then added (300 µL/well). The plate was blocked by incubation in an incubator at 37 °C for 1 h. After the blocking was complete, the blocking solution was discarded, and the plate was washed three times with PBST buffer. Biotin-NA-1, at a constant concentration of 0.3 µM, and the test compounds, having a starting concentration of 100 µM and serially diluted ten-fold with PBS buffer to seven concentrations (100, 10, 1, 0.1, 0.01, 0.001, 0.0001, and 0 µM), were then added, and the plate was incubated in an incubator at 37 °C for 1 h. After the incubation was complete, the reaction solutions in the microplate were discarded, and the plate was washed three times with PBST. 100 µL of HRP-SA secondary antibody (diluted at 1:2000) was added to each well, and the plate was incubated at 37 °C for 1 h. After the plate was washed three times with PBST, 100 µL of TMB chromogenic substrate was added. The plate was incubated at room temperature for 1-3 min, and 100 µL of 1 M sulfuric acid was added to stop the reaction.
The absorbance at 450 nm was measured using a SpectraMax M5 microplate reader, and non-linear fitting was performed using GraphPad Prism 9 to calculate the binding IC50 values of the test compounds to PSD95-PDZ2 protein.

[3] = biological target: T2, human PSD95-PDZ3 (Homo sapiens, UniProt P78352); test: binding ELISA with Biotin-PDZ3; conditions: plate coated with 2 µM test compound, Biotin-PDZ3 titrated; read-out: EC50 (PDZ3)
T2 construct: PDZ3 (309-401, Flag-His-Avitag-TEVsite tag); made in house
T2 sequence (P78352 309-401): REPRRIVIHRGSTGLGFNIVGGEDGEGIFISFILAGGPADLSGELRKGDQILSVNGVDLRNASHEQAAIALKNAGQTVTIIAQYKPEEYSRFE
Text: as §1, with “domain. The expression and purification of PSD95-PDZ3 protein were carried out with reference to the steps in 3.1.2. The amino acid sequence of PDZ3 protein: […]” for “domain.”, “μL” for “µL”

SMILES | selectivity for the PSD95-PDZ2 domain ([1]; PDZ2 versus PDZ3, conclusion in words) | EC50 [1] [µM] | Specificity for PDZ2 (PDZ3/PDZ2) [1] | IC50 [2] [µM] | rIC50 [2] | EC50 [3] [µM]
CC(C)[C@H](NC(=O)[C@H](CC(=O)O)NC(=O)[C@@H](NC(=O)[C@@H](NC(=O)[C@@H](NC(=O)COCCOCCNC(=O)[C@@H](CCCNC(=N)N)NC(=O)[C@@H](CCCNC(=N)N)NC(=O)[C@@H](CCCNC(=N)N)NC(=O)[C@@H](CCC(N)=O)NC(=O)[C@@H](CCCNC(=N)N)NC(=O)[C@@H](CCCNC(=N)N)NC(=O)[C@@H](CCCCN)NC(=O)[C@@H](CCCCN)NC(=O)[C@@H](CCCNC(=N)N)NC(=O)CNC(=O)[C@H](N)Cc1ccc(O)cc1)C(C)(C)C)C(C)(C)C)[C@@H](C)O)C(=O)O [Polypeptide compound 15, y-G-r-k-k-r-r-q-r-r-r-AEEA-Tle-Tle-T-D-V] | comparable to that of the positive drugs NA-1 and NoNO42 | 0.088 | >10000 | 2.62 | 3.00 | > 1000
CCCC[C@H](NC(=O)[C@@H](CCCNC(=N)N)NC(=O)[C@@H](CCCNC(=N)N)NC(=O)[C@@H](CCCNC(=N)N)NC(=O)[C@@H](CCC(N)=O)NC(=O)[C@@H](CCCNC(=N)N)NC(=O)[C@@H](CCCNC(=N)N)NC(=O)[C@@H](CCCCN)NC(=O)[C@@H](CCCCN)NC(=O)[C@@H](CCCNC(=N)N)NC(=O)CNC(=O)[C@H](N)Cc1ccc(O)cc1)C(=O)N[C@H](C(=O)N[C@H](C(=O)N[C@H](C(=O)N[C@H](C(=O)N[C@H](C(=O)N[C@@H](CC(=O)O)C(=O)N[C@H](C(=O)O)C(C)C)[C@@H](C)O)C(C)(C)C)C(C)(C)C)[C@@H](C)O)[C@@H](C)O [Polypeptide compound 16, y-G-r-k-k-r-r-q-r-r-r-Nle-T-T-Tle-Tle-T-D-V] | – | 0.081 | – | 1.52 | – | > 1000
CC[C@H](C)[C@H](NC(=O)[C@H](CCCCNC(=N)N)NC(=O)[C@H](CCCCNC(=N)N)NC(=O)[C@@H](NC(=O)[C@@H](CCCNC(=N)N)NC(=O)[C@@H](CCCNC(=N)N)NC(=O)[C@@H](CCCNC(=N)N)NC(=O)[C@@H](CCC(N)=O)NC(=O)[C@@H](CCCNC(=N)N)NC(=O)[C@@H](CCCNC(=N)N)NC(=O)[C@@H](CCCCN)NC(=O)[C@@H](CCCCN)NC(=O)[C@@H](CCCNC(=N)N)NC(=O)CNC(=O)[C@H](N)Cc1ccc(O)cc1)[C@@H](C)O)C(=O)N[C@H](C(=O)N[C@@H](CC(=O)O)C(=O)N[C@H](C(=O)O)C(C)C)[C@@H](C)O [Polypeptide compound 17, y-G-r-k-k-r-r-q-r-r-r-T-homoArg-homoArg-I-T-D-V] (H-[dY]G[dR][dK][dK][dR][dR][dQ][dR][dR][dR]T[hArg][hArg]ITDV-OH) | – | 0.269 | – | 0.605 | – | 38.3
CC(C)[C@H](NC(=O)[C@H](CC(=O)O)NC(=O)[C@@H](NC(=O)[C@@H](NC(=O)[C@@H](NC(=O)[C@H](CCCCNC(=N)N)NC(=O)[C@H](CCN)NC(=O)C(C)(C)NC(=O)CNC(=O)[C@@H](CCCNC(=N)N)NC(=O)[C@@H](CCCNC(=N)N)NC(=O)[C@@H](CCCNC(=N)N)NC(=O)[C@@H](CCC(N)=O)NC(=O)[C@@H](CCCNC(=N)N)NC(=O)[C@@H](CCCNC(=N)N)NC(=O)[C@@H](CCCCN)NC(=O)[C@@H](CCCCN)NC(=O)[C@@H](CCCNC(=N)N)NC(=O)CNC(=O)[C@H](N)Cc1ccc(O)cc1)C(C)(C)C)C(C)(C)C)[C@@H](C)O)C(=O)O [Polypeptide compound 18, y-G-r-k-k-r-r-q-r-r-r-G-Aib-Dab-homoArg-Tle-Tle-T-D-V] (H-[dY]G[dR][dK][dK][dR][dR][dQ][dR][dR][dR]G[Aib][Dab][hArg][Tle][Tle]TDV-OH) | – | 0.015 | 79 | 0.152 | 0.17 | 1.19
CC(C)[C@H](NC(=O)[C@H](CC(=O)O)NC(=O)[C@@H](NC(=O)[C@@H](NC(=O)[C@@H](NC(=O)[C@@H](NC(=O)CNC(=O)[C@@H](CCCNC(=N)N)NC(=O)[C@@H](CCCNC(=N)N)NC(=O)[C@@H](CCCNC(=N)N)NC(=O)[C@@H](CCC(N)=O)NC(=O)[C@@H](CCCNC(=N)N)NC(=O)[C@@H](CCCNC(=N)N)NC(=O)[C@@H](CCCCN)NC(=O)[C@@H](CCCCN)NC(=O)[C@@H](CCCNC(=N)N)NC(=O)CNC(=O)[C@H](N)Cc1ccc(O)cc1)[C@@H](C)O)C(C)(C)C)C(C)(C)C)[C@@H](C)O)C(=O)O [Polypeptide compound 20, y-G-r-k-k-r-r-q-r-r-r-G-T-Tle-Tle-T-D-V] (H-[dY]G[dR][dK][dK][dR][dR][dQ][dR][dR][dR]GT[Tle][Tle]TDV-OH) | – | 0.015 | 215 | 0.763 | 0.84 | 3.23
